Key:
[1] = system: Carrageenin-induced edema; experiment: Inhibitory activity on Carrageenin-induced Edema in rats (Experiment A); format: in vivo, rats (male Wistar); conditions: 3 hours after Carrageenin
Description: Inhibitory activity on Carrageenin-induced Edema in rats
Carrageenin was used as the agent for inducing edema and 5 male rats of Wistar strain having body weight of about 150 grs. after fasting for 16-17 hours were used as test animals. The inhibitory activity of the test compounds were determined with the paw edema method in accordance with Winter C. A. et al; Proc. Soc. Exp. Biol. Med. 111, 544 (1962).
The compounds were suspended in an aqueous solution of gum arabic and the same were orally administered to the rats at 1 hour before the injection of Carrageenin.
The observation was effected by measuring, after 3 hours the administration of the Carrageenin, the enlarged volumes of hind paw of the rats.

[2] = system: Kaolin-induced edema; experiment: Inhibitory activity on Kaolin-induced Edema in Rats (Experiment B); format: in vivo
[3] = system: Dextran-induced edema; experiment: Inhibitory activity on dextran-induced edema in rats (Experiment C); format: in vivo
Description: Inhibitory activity on dextran-induced edema in rats Experiment was carried out in the manner same as those of the preceding Experiments in which dextran was employed as irritant substance.

[4] = system: ARRS-induced edema; experiment: Inhibitory activity on anti-rat-rabbit serum (ARRS)-induced edema in rats (Experiment D); format: in vivo
Description: Inhibitory activity on anti-rat-rabbit serum (ARRS)-induced edema in rats Similar Experiments was carried out by using ARRS as irritant substance.

For `CC(C(=O)O)c1cccc(Oc2ccc(Cl)cc2)c1` (stereo not drawn) [(3), 2-[m-(p-chlorophenoxy)phenyl]propionic acid], the “% of Inhibition” value ([1]; oral 3.2 mg/kg) was 20%, the “Edema density ± S.E.” value ([1]; oral 3.2 mg/kg) was “.430 ± .068” and the “% of Inhibition” value ([1]; oral 80.0 mg/kg) was 38%. For the same compound, the “Edema density ± S.E.” value ([1]; oral 80.0 mg/kg) was “.334 ± .055”, the “Edema D. ± S.E.” value ([2]; after 3 hrs, oral 16 mg/kg) was “.418 ± .024” and the “% of Inhibition” value ([2]; after 3 hrs, oral 80 mg/kg) was 29%. For the same compound, the “Edema D. ± S.E.” value ([2]; after 3 hrs, oral 80 mg/kg) was “.297 ± .085”, the “% of Inhibition” value ([2]; after 5 hrs, oral 16 mg/kg) was 13% and the “Edema D. ± S.E.” value ([2]; after 5 hrs, oral 16 mg/kg) was “.491 ± .021”. The “% of Inhibition” value ([2]; after 5 hrs, oral 80 mg/kg) was 40%, the “Edema D. ± S.E.” value ([2]; after 5 hrs, oral 80 mg/kg) was “.340 ± .107” and the “% of Inhibition” value ([2]; after 7 hrs, oral 16 mg/kg) was 14%. For the same compound, the “Edema D. ± S.E.” value ([2]; after 7 hrs, oral 16 mg/kg) was “.524 ± .037”, the “% of Inhibition” value ([2]; after 7 hrs, oral 80 mg/kg) was 27% and the “Edema D. ± S.E.” value ([2]; after 7 hrs, oral 80 mg/kg) was “.442 ± .119”. The “% of Inhibition” value ([3]; after 2 hrs, oral 16 mg/kg) was 6%, the “Edema D. ± S.E.” value ([3]; after 2 hrs, oral 16 mg/kg) was “.782 ± .062” and the “% of Inhibition” value ([3]; after 2 hrs, oral 80 mg/kg) was 7%. The “Edema D. ± S.E.” value ([3]; after 2 hrs, oral 80 mg/kg) was “.776 ± .022”, the “% of Inhibition” value ([3]; after 3 hrs, oral 16 mg/kg) was 5% and the “Edema D. ± S.E.” value ([3]; after 3 hrs, oral 16 mg/kg) was “.713 ± .036”. For the same compound, the “% of Inhibition” value ([3]; after 3 hrs, oral 80 mg/kg) was 4%, the “Edema D. ± S.E.” value ([3]; after 3 hrs, oral 80 mg/kg) was “.723 ± .027” and the “% of Inhibition” value ([4]; after 2 hrs, oral 16 mg/kg) was 10%. For the same compound, the “Edema D. ± S.E.” value ([4]; after 2 hrs, oral 16 mg/kg) was “.613 ± .054”, the “% of Inhibition” value ([4]; after 2 hrs, oral 80 mg/kg) was 1% and the “Edema D. ± S.E.” value ([4]; after 2 hrs, oral 80 mg/kg) was “.672 ± .036”. For the same compound, the “% of Inhibition” value ([4]; after 3 hrs, oral 16 mg/kg) was 16%, the “Edema D. ± S.E.” value ([4]; after 3 hrs, oral 16 mg/kg) was “.599 ± .065” and the “% of Inhibition” value ([4]; after 3 hrs, oral 80 mg/kg) was 11%. For the same compound, the “Edema D. ± S.E.” value ([4]; after 3 hrs, oral 80 mg/kg) was “.634 ± .016”.

For `CC(C(=O)O)c1cccc(Oc2ccc(Cl)cc2)c1` (stereo not drawn) [(4)], the “% of Inhibition” value ([1]; oral 8.0 mg/kg) was 12%, the “Edema density ± S.E.” value ([1]; oral 8.0 mg/kg) was “.477 ± .049” and the “% of Inhibition” value ([1]; oral 40.0 mg/kg) was 46%. The “Edema density ± S.E.” value ([1]; oral 40.0 mg/kg) was “.293 ± .056”, the “% of Inhibition” value ([2]; after 3 hrs, oral 8 mg/kg) was 12% and the “Edema D. ± S.E.” value ([2]; after 3 hrs, oral 8 mg/kg) was “.369 ± .048”. The “% of Inhibition” value ([2]; after 3 hrs, oral 40 mg/kg) was 35%, the “Edema D. ± S.E.” value ([2]; after 3 hrs, oral 40 mg/kg) was “.271 ± .075” and the “% of Inhibition” value ([2]; after 5 hrs, oral 8 mg/kg) was 8%. The “Edema D. ± S.E.” value ([2]; after 5 hrs, oral 8 mg/kg) was “.519 ± .035”, the “% of Inhibition” value ([2]; after 5 hrs, oral 40 mg/kg) was 41% and the “Edema D. ± S.E.” value ([2]; after 5 hrs, oral 40 mg/kg) was “.333 ± .073”. For the same compound, the “% of Inhibition” value ([2]; after 7 hrs, oral 8 mg/kg) was -3%, the “Edema D. ± S.E.” value ([2]; after 7 hrs, oral 8 mg/kg) was “.625 ± .040” and the “% of Inhibition” value ([2]; after 7 hrs, oral 40 mg/kg) was 35%. The “Edema D. ± S.E.” value ([2]; after 7 hrs, oral 40 mg/kg) was “.396 ± .072”, the “% of Inhibition” value ([3]; after 2 hrs, oral 8 mg/kg) was 10% and the “Edema D. ± S.E.” value ([3]; after 2 hrs, oral 8 mg/kg) was “.753 ± .052”. For the same compound, the “% of Inhibition” value ([3]; after 2 hrs, oral 40 mg/kg) was 6%, the “Edema D. ± S.E.” value ([3]; after 2 hrs, oral 40 mg/kg) was “.780 ± .033” and the “% of Inhibition” value ([3]; after 3 hrs, oral 8 mg/kg) was 10%. For the same compound, the “Edema D. ± S.E.” value ([3]; after 3 hrs, oral 8 mg/kg) was “.780 ± .033”, the “% of Inhibition” value ([3]; after 3 hrs, oral 40 mg/kg) was 8% and the “Edema D. ± S.E.” value ([3]; after 3 hrs, oral 40 mg/kg) was “.692 ± .048”. For the same compound, the “% of Inhibition” value ([4]; after 2 hrs, oral 8 mg/kg) was 5%, the “Edema D. ± S.E.” value ([4]; after 2 hrs, oral 8 mg/kg) was “.649 ± .032” and the “% of Inhibition” value ([4]; after 2 hrs, oral 40 mg/kg) was 17%. The “Edema D. ± S.E.” value ([4]; after 2 hrs, oral 40 mg/kg) was “.563 ± .016”, the “% of Inhibition” value ([4]; after 3 hrs, oral 8 mg/kg) was 13% and the “Edema D. ± S.E.” value ([4]; after 3 hrs, oral 8 mg/kg) was “.621 ± .058”. For the same compound, the “% of Inhibition” value ([4]; after 3 hrs, oral 40 mg/kg) was 25% and the “Edema D. ± S.E.” value ([4]; after 3 hrs, oral 40 mg/kg) was “.535 ± .027”.

From patent publication US3985779A, “M-phenoxyphenyl propionic acid derivatives and preparation thereof” (Eisai Co., Ltd., priority 1973, dated 1976)
